According to US20060286679A1, “Immunochromatographic method” (Mitsubishi Kagaku latron, Inc., priority 2003, published 2006):

Experiments:
[1] = system: Human whole blood; experiment: Observation on hemolysis after mixing whole blood with equal volume of detergent liquid; format: cell-based; note: key: Hml: Hemolyzed; Not hemolyzed; FCD: Failure in chromatographic development
Procedure: Deionized water, physiological saline (150 mmol/L sodium chloride liquid), and a 10 mmol/L phosphate buffer (pH 7.5, 150 mmol/L sodium chloride) were prepared.
Human whole blood (100 μL) collected using a tube containing heparin anticoagulant was mixed with an equal volume of each detergent liquid (100 μL) to prepare each sample. After 10 minutes from the mixing, hemolysis in each sample was observed visually. The “hemolysis” was judged on the basis of a transparent state caused by a solubilization of erythrocytic membrane and elution of red pigments such as hemoglobin from erythrocytes.
Total concentrations of five detergents in the four mixed liquids were 0.2, 1.0, 5.0, and 20%, respectively.

[2] = system: mite-specific IgE; experiment: Enzyme immunochromatographic measurement of specific IgE in hemolyzed whole-blood-derived sample; set-up: species or system human
Procedure: A nitrocellulose membrane (HF180; pore size=5 to 8 μm; Millipore) was cut into a rectangular piece (5 mm×25 mm). An aqueous solution of extracted mite allergen proteins (1 mg/mL) was applied linearly with a width of 1 mm at the position of 15 mm from an end (upstream) of the membrane. In this connection, the aqueous solution was previously prepared by diluting a Dermatophagoides pteronyssinus extract (Glia) with a 5 mmol/L borate buffer (pH 8.5) and dialyzing the diluted solution.
A plastic adhesive sheet (BioDot) was cut into a rectangular piece (5 mm×60 mm). […] In this connection, adjacent pieces attached on the adhesive sheet were overlapped with each other at a width of approximately 1 mm.
Each aliquot (50 μL) of whole-blood-derived samples prepared by hemolysis and solubilization was dispensed into each well of a microplate. […]
As the above samples, sample 1 (mite-specific IgE=0 IU/mL), sample 2 (mite-specific IgE=3 IU/mL), and sample 3 (mite-specific IgE=10 IU/mL) were used. The amounts of mite-specific IgE were measured by a conventional quantitative analysis (AlaSTAT specific IgE antibody measuring kit; obtained from Iatron and manufactured by DPC, US) and shown by IU/mL, an international standard unit.

[3] = Example 1, detergent liquid 20% (final half), visual, 10 min after mixing
[4] = Example 2, detergent liquid 20% (final half)
[5] = Example 1, detergent liquid 1% (final half), visual, 10 min after mixing
[6] = Example 1, detergent liquid 5% (final half), visual, 10 min after mixing
[7] = Example 2, detergent liquid 1% (final half)
[8] = Example 2, detergent liquid 5% (final half)

Compound | Hemolysis [1, 3] | Hemolysis [1, 4] | Hemolysis [1, 5] | Hemolysis [1, 6] | Hemolysis [1, 7] | Hemolysis [1, 8] | solubilization of whole blood, immunochromatographic staining, and immunochromatographic development [2] | Hemolysis ([1]; Example 1, detergent liquid 0.2% (final half), visual, 10 min after mixing) | Hemolysis ([1]; Example 2, detergent liquid 0.2% (final half))
polyoxyethylene monolaurate [Tween 20] | Hml | Hml | – | – | – | – | – | – | –
polyethylene glycol mono-para-iso-octylphenyl ester [Triton X-100] | Hml | Hml | Hml | Hml | Hml | Hml | cannot be performed | – | –
CCCCCCCCCCCCOS(=O)(=O)[O-].[Na+] [sodium dodecyl sulfate] | Hml | Hml | Hml | Hml | Hml | Hml | – | Hml | Hml
polyoxyethylene laurylether [Emulgen 108] | Hml | Hml | Hml | Hml | Hml | Hml | – | – | –
CCCCCCCCCCCCCCCCCC[N+](C)(C)CC(=O)[O-] [Amphitol 86B, stearyl betaine] | Hml | Hml | Hml | Hml | Hml | Hml | cannot be performed | – | –
C[C@H](CCC(=O)NCCC[N+](C)(C)CCCS(=O)(=O)[O-])[C@H]1CC[C@H]2[C@@H]3[C@H](O)C[C@@H]4C[C@H](O)CC[C@]4(C)[C@H]3C[C@H](O)[C@]12C [CHAPS, 3-[(3-cholamido-propyl)dimethyl-ammonio]propanesulfonic acid] | Hml | Hml | Hml | Hml | Hml | Hml | – | – | –
